# In patent US20120003262A1, “ANTICANCER HEALTH FOOD CONTAINING PHELLINUS LINTEUS AND VEGETABLE WORMS” (HAN KOOK SHIN YAK CO., LTD., priority 2008, published 2012):
# Test system: lung cancer cell (Lewis Lung Carcinoma: LLC)
# Assay: Anticancer animal test: Lewis Lung Carcinoma transplanted to mice, tumor volume and weight after 14 days of administration
# Format: in vivo, mouse
# Details: LLC-transplanted BDF1 male mice, extracts 200 mg/kg orally daily, Taxol 50 mg/kg intraperitoneally daily, for 14 days
# Description: In order to test an anticancer effect of the mixture extract of Phellinus linteus and vegetable worms, from Examples 1 to 7, and Comparative 1, an animal test was carried out. A mouse used for the experiment was bought from Jung Ang Lab. Animal Inc. (black, Japan, BDF1 male, weight: 20±2 g). The breeding temperature was 22±2° C., and solid feed stuff (Samyang feed Co.) and water were sufficiently supplied. […]
# A solvent for the extraction was an extra pure reagent (E.P.). For the test sample, a sterilized saline solution manufactured by Daihan Pharm Co. Ltd. was used. For the culture of a cancer cell, an RPMI 1640 medium (WelGENE Inc.) was used, and Trypsin-EDTA was manufactured by GIBCO. Besides, a test tube required for cell culture, a culture flask, and a filter for obtaining a cancer cell were manufactured by Falcon. Devices used for cancer transplantation were disinfected at 120° C. for 30 min, and a cancer volume was measured by a Digital Caliper.
# A lung cancer cell (Lewis Lung Carcinoma: LLC) used for the experiment was distributed from the Korea Research Institute of Bioscience and Biotechnology. The lung cancer cell (Lewis Lung Carcinoma: LLC) was cultured by RPMI 1640 medium added with 10% FBS in a 37° C. incubator, and for the detachment from an attachment surface, Trypsin-EDTA was used. When the cells are filled up in a 200 ml culture flask, they were transplanted to two animals. After the cells were grown in vivo, they were used for an animal test.
# In an anticancer animal test, a tumor grown up to a size of about 15×15×15 mm^3 was separated, and a cancer cell was separated from other cells by using a filer (Falcon). […] From the day after the cancer transplantation, for 14 days, powder obtained by mixing Phellinus linteus and vegetable worms at a weight ratio of 1:1 (Example 1), 1:3(Example 2), 3:1(Example 3), 1:5(Example 4), 5:1(Example 5), 1:10(Example 6), 10:1(Example 7) was orally administered daily to a black mouse (Japan) in an amount of 200 mg/kg. Meanwhile, as a positive control group, Taxol was intraperitoneally injected daily in an amount of 50 mg/kg once a day for 14 days. After 14 days, the administration of the extract powder of Phellinus linteus and vegetable worms was stopped, and a Digital Caliper was used to measure the results. […] After the measurement of a tumor volume, a tumor lump was obtained through an operation and its weight was measured. An inhibition ratio of tumor weight (IRTW) was calculated by (TW of control−TW of test)×100/TW of control.
# All data were indicated by mean±S.D., and the analysis was carried out by Anova test. Also, when p values are 0.05 or less, they were determined to have significance.
smiles,measurement,setting,value
CC(=O)O[C@H]1C(=O)[C@@]2(C)[C@H]([C@H](OC(=O)c3ccccc3)[C@]3(O)C[C@H](OC(=O)[C@H](O)[C@@H](NC(=O)c4ccccc4)c4ccccc4)C(C)=C1C3(C)C)[C@]1(OC(C)=O)CO[C@@H]1C[C@@H]2O [Taxol],Tumor volume inhibiting ratio,(TV of control−TV of test)×100/TV of control,67%
same,Tumor weight inhibiting ratio,(TW of control−TW of test)×100/TW of control,64%
same,Tumor size,"mean±S.D., 5 mice",649 ± 182 mm^3
same,Tumor weight,"mean±S.D., 5 mice",0.61 ± 0.3 g
